In patent publication US9308230B2, “Combination of proanthocyanidins and centella asiatica for the treatment of atherosclerosis” (HORPHAG RESEARCH IP, priority 2009, dated 2016):

Tested on: hypoechoic-echolucent carotid and femoral atherosclerotic plaques
Test: Grey Scale Median (GSM) ultrasound measurement of echolucent carotid and femoral atherosclerotic plaques, prospective 6-month trial
Assay type: in vivo, human
Conditions: once daily for 6 months, 100 mg/day of each component; responders/patients in group; ** = significant vs initial value and control
Experimental: Variation in echogenicity of echolucent carotid and femoral atherosclerotic plaques with combined treatment (Pycnogenol 100 mg+TTFCA 100 mg, with or without Aspirin 100 mg). A prospective, pilot 6-month trial. (TTFCA=total triterpenic fraction of Centella asiatica) This study has evaluated whether a combination of Pycnogenol® and TTFCA, with or without Aspirin, was effective in reducing plaque progression and cardiovascular risk of events by decreasing platelet aggregation, local arterial inflammation and the intima-media scarring process due to inflammation at the level of carotid and femoral arteries bifurcations. This prospective placebo-controlled trial had the purpose of evaluating the effects of Pycnogenol® and TTFCA, with or without Aspirin, selectivity on hypoechoic-echolucent plaques. The sonographic examination of carotid plaques was made with high-resolution ultrasound. Capturing plaques images, digital image processing, and normalization were standardized. The interobserver, […], gain-level variability were also standardized using as reference blood (black) for the most echolucent parts of the plaque and the adventitia (white) as the most echogenic part. The technique for plaque characterization and GSM (Grey Scale Median) measurements had been previously described in details. […]

Structure (SMILES): CC(=O)Oc1ccccc1C(=O)O [Aspirin, acetylsalicylic acid]
- At 6 months: number of patients with an increase of plaques Grey Scale Median of at least 5 points: 2/18
